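Exposure lasted 48 hours, with cells grown in 96-well plates and compounds tested at five concentrations. The concentration for 50% growth inhibition is given as GI50.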 Activity calls are given as the source filed them. No stated cut-off is given here; in the data, active = GI50 up to about 1.1 µM and inactive = higher.
Experiments:
Experiment in all cases: growth of human tumour cells (NCI), 48 h
[1] = tested on: HT-29
[2] = tested on: OVCAR-4
[3] = tested on: SNB-19
[4] = tested on: MDA-MB-231
[5] = tested on: A549
[6] = tested on: HCT-15
[7] = tested on: UACC-62
[8] = tested on: HL-60
[9] = tested on: UO-31
[10] = tested on: HOP-92
[11] = tested on: 786-0
[12] = tested on: NCI-H226
[13] = tested on: PC-3
[14] = tested on: CCRF-CEM
[15] = tested on: K562
[16] = tested on: SR
[17] = tested on: ACHN
[18] = tested on: SW-620
[19] = tested on: SN12C

SMILES | GI50 [1] | GI50 [2] | GI50 [3] | GI50 [4] | GI50 [5] | GI50 [6] [µM] | GI50 [7] | GI50 [8] | GI50 [9] | GI50 [10] | GI50 [11] | GI50 [12] | GI50 [13] | GI50 [14] | GI50 [15] | GI50 [16] | GI50 [17] | GI50 [18] | GI50 [19]
COc1ccc(C2C(C(=O)c3ccccc3)=C(O)C(O)(CC(=O)c3ccccc3)N2c2ccc(OC)cc2)cc1 (configuration not stated) | 19.3 µM (inactive) | 19.1 µM (inactive) | 12.2 µM (inactive) | 19.2 µM (inactive) | 22.4 µM (inactive) | 9.38 | 22.8 µM (inactive) | 5.78 µM (inactive) | 11.5 µM (inactive) | 4.2 µM (inactive) | 16.8 µM (inactive) | 16.1 µM (inactive) | 11.6 µM (inactive) | 3.52 µM (inactive) | 16.6 µM (inactive) | 4.66 µM (inactive) | 21 µM (inactive) | 9.08 µM (inactive) | 21.6 µM (inactive)
CC(C)n1c(=O)c2nn3c(=O)n(C(C)C)c(=O)c3nn2c1=O | > 100 µM (inactive) | > 100 µM (inactive) | > 100 µM (inactive) | > 100 µM (inactive) | > 100 µM (inactive) | > 100 | > 100 µM (inactive) | > 100 µM (inactive) | – | > 100 µM (inactive) | > 100 µM (inactive) | > 100 µM (inactive) | > 100 µM (inactive) | > 100 µM (inactive) | – | > 100 µM (inactive) | > 100 µM (inactive) | > 100 µM (inactive) | > 100 µM (inactive)
CC(C)C1=C2CCC3(C)C(CCC4C5C6OCC5(CCC6(C)C)CCC43C)C2(C)CC1 (configuration not stated) | 17.7 µM (inactive) | 25.3 µM (inactive) | 29.1 µM (inactive) | 20 µM (inactive) | 17.3 µM (inactive) | 19.1 | 17.7 µM (inactive) | 8.81 µM (inactive) | 18.1 µM (inactive) | 18.6 µM (inactive) | 17.7 µM (inactive) | 33.7 µM (inactive) | > 10 µM (inactive) | 12.3 µM (inactive) | – | 11.3 µM (inactive) | 20 µM (inactive) | 22.5 µM (inactive) | 15 µM (inactive)
CC(C)C1OC(=O)/C=C/C=C/C=C/C=C/C=C/CC(O)CC(O)CC(O)CC(O)CC(O)CC(O)CC(O)CC(O)/C=C/C1C (configuration not stated) | > 100 µM (inactive) | > 100 µM (inactive) | > 100 µM (inactive) | > 100 µM (inactive) | > 100 µM (inactive) | > 100 | – | > 100 µM (inactive) | > 100 µM (inactive) | > 100 µM (inactive) | > 100 µM (inactive) | > 100 µM (inactive) | > 100 µM (inactive) | > 100 µM (inactive) | > 100 µM (inactive) | > 100 µM (inactive) | > 100 µM (inactive) | > 100 µM (inactive) | > 100 µM (inactive)
O=S(=O)(O)c1ccc2c(/N=N/c3ccc(S(=O)(=O)O)c4ccccc34)c(O)c(S(=O)(=O)O)cc2c1 | > 100 µM (inactive) | > 100 µM (inactive) | > 100 µM (inactive) | > 100 µM (inactive) | – | > 100 | > 100 µM (inactive) | > 100 µM (inactive) | > 100 µM (inactive) | > 100 µM (inactive) | > 100 µM (inactive) | > 100 µM (inactive) | > 100 µM (inactive) | > 100 µM (inactive) | > 100 µM (inactive) | > 100 µM (inactive) | > 100 µM (inactive) | > 100 µM (inactive) | > 100 µM (inactive)
N#Cc1c(-c2ccc(F)cc2)c(-c2ccc(F)cc2)nn(CCO)c1=O | 0.143 µM (active) | 1.32 µM (inactive) | 4.9 µM (inactive) | 0.661 µM (active) | 0.25 µM (active) | 0.132 | 0.14 µM (active) | 0.091 µM (active) | 1.38 µM (inactive) | 1.91 µM (inactive) | 0.421 µM (active) | 1.77 µM (inactive) | 0.416 µM (active) | 0.564 µM (active) | 0.103 µM (active) | 0.2 µM (active) | 0.413 µM (active) | – | 0.27 µM (active)
CN(C)CCNc1ccc(CO)c2oc3ccc(O)cc3c(=O)c12 | 11.3 µM (inactive) | 13.8 µM (inactive) | 17.1 µM (inactive) | 17 µM (inactive) | 14.6 µM (inactive) | 14.4 | 11.5 µM (inactive) | 10.8 µM (inactive) | 10.5 µM (inactive) | 15.7 µM (inactive) | 8.61 µM (inactive) | 11.7 µM (inactive) | 12.7 µM (inactive) | 4.56 µM (inactive) | 10.2 µM (inactive) | 1.14 µM (inactive) | 7.45 µM (inactive) | 8.97 µM (inactive) | 12.9 µM (inactive)
